Experimental data: patent publication US4994376A, “Detection of bacteroides gingivalis” (priority 1987, dated 1991)
Read-outs that look alike come from different tables or passages of the source. Peptide text beside a SMILES is read from it. * marks the point of attachment. βNA = c1ccc2cc(N*)ccc2c1

Key:
Type in all cases: biochemical
B. loescheii = settings: β-naphthylamine liberated after 60 minutes, 37° C.
In short: (§1)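 N-CBz-glycyl-glycyl-L-arginine-β-naphthylamide was hydrolysed for 1 hour at 37 °C, then coupled with Fast Garnet GBC (0.5 mg/ml) in 1M acetic acid buffer, pH 4.2, containing 10% Tween 20. After 15 minutes at room temperature, absorbance was read at 525 nm against a no-enzyme blank; activity is given as nmol β-naphthylamine released per 60 min.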

B. mel. ss. intermedius = settings: β-naphthylamine liberated after 60 minutes, 37° C.
In short: as §1

C. ochracea = settings: strain ATCC 27872; β-naphthylamine liberated after 60 minutes, 37° C.
In short: as §1

B. levii = settings: β-naphthylamine liberated after 60 minutes, 37° C.
In short: as §1

Bacteroides gingivalis = settings: β-naphthylamine liberated after 60 minutes, 37° C.
In short: as §1

[1] = tested on: Capnocytophaga gingivalis; settings: strain ATCC 33624; β-naphthylamine liberated after 60 minutes, 37° C.
In short: as §1

B. asaccharolyticus = settings: β-naphthylamine liberated after 60 minutes, 37° C.
In short: as §1

V. parvula = settings: strain ATCC 10790; β-naphthylamine liberated after 60 minutes, 37° C.
In short: (§2)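 Aminopeptidase values express the nanomoles of β-naphthylamine freed from N-CBz-glycyl-glycyl-L-arginine-β-naphthylamide during a 60-minute, 37° C incubation. The liberated amine was coupled with stabilized diazonium salt Fast Garnet GBC and measured at 525 nm against an enzyme-free blank.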

Eikenella corrodens = settings: strain BP1-6; β-naphthylamine liberated after 60 minutes, 37° C.
In short: as §2

Campylobacter sputorum = settings: strain Ba1-21; β-naphthylamine liberated after 60 minutes, 37° C.
In short: as §2

Actinomyces israeli = settings: β-naphthylamine liberated after 60 minutes, 37° C.
In short: as §2

[2] = tested on: Actinobacillus actinomycetemcomitans; settings: β-naphthylamine liberated after 60 minutes, 37° C.
In short: as §2

Veillonella sp. = settings: strain SE1M2; β-naphthylamine liberated after 60 minutes, 37° C.
In short: as §2

A. seminis = settings: strain ATCC 15768; β-naphthylamine liberated after 60 minutes, 37° C.
In short: as §2

"Anaerobic vibrio" = settings: strain SN2T2; β-naphthylamine liberated after 60 minutes, 37° C.
In short: as §2

Streptococcus mitis = settings: β-naphthylamine liberated after 60 minutes, 37° C.
In short: as §2

A. viscosus = settings: β-naphthylamine liberated after 60 minutes, 37° C.
In short: as §2

Fusobacterium nucleatum = settings: β-naphthylamine liberated after 60 minutes, 37° C.
In short: as §2

S. sanguis = settings: β-naphthylamine liberated after 60 minutes, 37° C.
In short: as §2

S. mutans = settings: strain ATCC 25175; β-naphthylamine liberated after 60 minutes, 37° C.
In short: as §2

L. fermentum = assay: Aminopeptidase activity on β-naphthylamide substrates; settings: strain ATCC 11581; β-naphthylamine liberated after 60 minutes, 37° C.
In short: as §2

A. equuli = assay: as above; settings: strain ATCC 19392; β-naphthylamine liberated after 60 minutes, 37° C.
In short: as §2

Haemophilus aphrophilus = assay: as above; settings: β-naphthylamine liberated after 60 minutes, 37° C.
In short: as §2

F. periodonticum = assay: as above; settings: strain EK1-15; β-naphthylamine liberated after 60 minutes, 37° C.
In short: as §2

S. salivarius = assay: as above; settings: β-naphthylamine liberated after 60 minutes, 37° C.
In short: as §2

A. suis = assay: as above; settings: strain ATCC 15557; β-naphthylamine liberated after 60 minutes, 37° C.
In short: as §2

Lactobacillus casei = assay: as above; settings: β-naphthylamine liberated after 60 minutes, 37° C.
In short: as §2

Measured: Aminopeptidase activity

C[C@H](N)C(=O)N[C@@H](C)C(=O)N[C@@H](Cc1ccccc1)C(=O)Nc1ccc2ccccc2c1 [Ala-Ala-Phe] (H-Ala-Ala-Phe-βNA)
1 nmol: B. loescheii; strain ATCC 15930 | Bacteroides gingivalis; strain ATCC 33277 | [2]; strain 75 | [2]; strain NCTC 9709 | Streptococcus mitis; strain ATCC 15909 | S. sanguis; strain ATCC 10557 | F. periodonticum
4 nmol: A. viscosus; strain T14V
3 nmol: Bacteroides gingivalis; strain FAYE 19m-1 | Actinomyces israeli; strain ATCC 12103 | [2]; strain 67 | Streptococcus mitis; strain ATCC 9815 | Fusobacterium nucleatum; strain ATCC 25586 | Lactobacillus casei; strain ATCC 11578 | Lactobacillus casei; strain ATCC 11582
5 nmol: L. fermentum
2 nmol: A. viscosus; strain ATCC 19246 | Fusobacterium nucleatum; strain 2 | S. sanguis; strain ATCC 10556
0 nmol: B. loescheii; strain VPI4196 | B. mel. ss. intermedius; strain ATCC 25261 | B. mel. ss. intermedius; strain ATCC 33563 | B. mel. ss. intermedius; strain NCTC 9336 | B. levii; strain 18-1-5 | B. levii; strain 18-1-8 | Bacteroides gingivalis; strain 9-14K-1 | Bacteroides gingivalis; strain 11-1-2 | Bacteroides gingivalis; strain 381 | Bacteroides gingivalis; strain 1021 | B. asaccharolyticus; strain 536B | B. asaccharolyticus; strain ATCC 18569 | B. asaccharolyticus; strain ATCC 25260 | B. asaccharolyticus; strain ATCC 27067 | B. asaccharolyticus; strain NY446 | V. parvula | Eikenella corrodens | Campylobacter sputorum | Actinomyces israeli; strain DK2-3 | [2]; strain ATCC 29523 | [2]; strain Y4 | Veillonella sp. | A. seminis | "Anaerobic vibrio" | Streptococcus mitis; strain ATCC 15911 | Streptococcus mitis; strain ATCC 15912 | Fusobacterium nucleatum; strain D31A-24 | S. mutans | A. equuli | Haemophilus aphrophilus; strain ATCC 13252 | Haemophilus aphrophilus; strain ATCC 19415 | Haemophilus aphrophilus; strain NCTC 5908 | S. salivarius; strain ATCC 9759 | S. salivarius; strain ATCC 25975 | A. suis | Lactobacillus casei; strain ATCC 7469
72 nmol: [1]
82 nmol: C. ochracea
